Columns and labels:
LNCaP spheroids [1] = experiment: LNCaP spheroid growth (volume monitoring); type: cell-based, human; conditions: for growth delay: 5-day incubation, vs untreated
Procedure: Cell concentrations were determined by counting trypsinized cells with a hemocytometer. […] The entire content of the above references is hereby incorporated by reference.
The medium was inoculated at 6.7×10^4 cells/mL from trypsinized stock cultures. The resulting suspension was used to seed 100 mm plates with approximately 10^6 cells. After an incubation of 5-7 days, spheroids of ˜200 μm diameter were selected under an inverted phase-contrast microscope (Axiophot 2; Carl Zeiss Ltd., Gottingen, Germany) fitted with an ocular scale using an Eppendorf pipette.
TREATMENT PROTOCOLS: After each treatment, spheroids were washed three times by suspension in fresh medium. […] A minimum of 12 spheroids was used for each condition in duplicate experiments.
The antibody was obtained from the laboratory of David Scheinberg, M. D., Ph.D., Memorial Sloan-Kettering Cancer Center.
Following complete treatment, washed spheroids were placed in separate agar-prepared wells of a 24 well plate. Untreated spheroids were washed and separated immediately after initial selection. The medium in each well was replaced, and volume measurements preformed, twice per week. Using the inverted microscope and ocular scale described previously, the major and minor diameter, dmax and dmin respectively, were determined and spheroid volume calculated as V=(⅙)·π·dmax·dmin^2. Volume monitoring was stopped once a spheroid had exceeded the field of view of the microscope or had fragmented into individual cells or multiple smaller cell clusters.
We describe this relationship through the inequality:
avg(V|S=5M, R=6 Gy)<C+{avg(V|S=5 μM, R=0)−C}+{avg(V|S=0, R=6 Gy)−C}
To test for synergy, we computed 2000 bootstrap replicates of the average log AUC, for each of the four groups, and computed the proportion of replicates where the inequality was not obtained. This proportion is termed the achieved significance level (p-value).

LNCaP spheroids [2] = experiment: TUNEL staining of spheroid sections (apoptosis); type: cell-based, human; conditions: for TUNEL staining (apoptosis): SAHA alone
Procedure: At 0, 6, 24, or 48 h post treatment spheroids were washed in cold media, fixed for 4 hr in 4% paraformaldehyde, and placed in paraffin blocks. Serial 5-μm sections of the blocks were cut using a microtome and mounted on poly-L-lysine-coated slides that were fixed in ice cold acetone for 10 min.
A final, 2 min incubation in Hematoxylin was used to counterstain sections. Untreated spheroids were used as controls; positive controls were created using DNase I (Boehringer, Ingelheim, Germany). Images were captured digitally from an inverted phase-contrast microscope using a coupled Pixera Professional Camera and associated software (Pixera Visual Communication Suite, Pixera, Los Gatos, Calif.). Images were scored for positive staining as percentage of reactive cells within the spheroid section.
A two-tailed T test was used to test for significant differences in the percentage of positively stained cells.

[3] = tested on: prostate tumor xenografts; conditions: nude mice (Butler et al. 2000); cited from earlier work
LNCaP spheroids [4] = experiment: Outgrowth assay (colony formation) of spheroids that did not regrow; type: cell-based, human; conditions: 5 μM SAHA 96 h in combination with 6 Gy external beam radiation
[5] = tested on: LNCaP monolayer cell culture; conditions: cited from earlier work
[6] = continuous exposure at 5 μM SAHA

With “Ac225-HuM195: recombinant humanized Anti-CD33 monoclonal antibody which has been radiolabelled with actinium225” as the compound, how does the spheroid growth (LNCaP spheroids [1]; 100 nCi/mL Ac225-HuM195 for 24 hours alone) read?
Its spheroid growth is “did not cause growth inhibition”.

Which growth delay (LNCaP spheroids [1]; 1.25 μM SAHA) does the source give for `O=C(CCCCCCC(=O)Nc1ccccc1)NO` [SAHA, Suberoylanilide hydroxamic acid] here?
The growth delay was 4 days.

What about the spheroid growth (LNCaP spheroids [1]; 1.25 μM SAHA, 120-hour and continuous exposure) of the same compound?
The spheroid growth was “delayed but not arrested”.

And the growth delay (LNCaP spheroids [1]; 2.5 μM SAHA)?
The growth delay was 7 days.

And the spheroid growth (LNCaP spheroids [1]; 2.5 μM SAHA, over the 120 h incubation period)?
Its spheroid growth is “complete growth arrest”.

And the “statistical analysis of synergy (log AUC of tumor volume curve, bootstrap)” value (LNCaP spheroids [1]; 5 μM SAHA 96 h + 6 Gy vs additive model, p<0.01)?
Its value is “synergistic inhibition of tumor growth”.

What about the spheroid growth (LNCaP spheroids [1]; 5 μM SAHA 96 h in combination with 6 Gy external beam radiation after 48 h) of the same compound?
Its spheroid growth is “complete growth inhibition”.

And the “delay in spheroid growth” value (LNCaP spheroids [1]; 5 μM SAHA 120 h in combination with 3 Gy external beam radiation)?
Its value is 7 days.

What about the growth delay (LNCaP spheroids [1]; 5 μM SAHA) of the same compound?
Its growth delay is 13 days.

And the “time of incubation until complete spheroid disruption” value (LNCaP spheroids [1]; 5 μM SAHA, continuous incubation)?
Its value is 13 to 16 days.

And the median volume reduction (LNCaP spheroids [1]; 5 μM SAHA, five days following a 120 hour incubation)?
Its median volume reduction is 2.4 fold.

And the spheroid growth (LNCaP spheroids [1]; 24 hour exposure to 100 nCi/mL Ac225-HuM195 followed by 96 h incubation with 5 μM SAHA)?
Its spheroid growth is “complete growth inhibition”.

What about the “initial delay of spheroid growth” value (LNCaP spheroids [1]; 96 h exposure to 5 μM SAHA alone (Example 5)) of the same compound?
Its value is 10 days.

And the “spheroid growth after the initial delay” value (LNCaP spheroids [1]; 96 h exposure to 5 μM SAHA alone, after a period of 30 days (Example 5))?
Its value is “spheroid growth to almost the levels of control untreated spheroid volume”.

What about the spheroid growth (LNCaP spheroids [1]; continuous exposure at 2.5 μM SAHA) of the same compound?
The spheroid growth was “complete growth suppression”.

And the “day by which the majority of spheroids disaggregated” value (LNCaP spheroids [1]; [6])?
The value was at most 20 days.

And the spheroid volume (LNCaP spheroids [1]; [6])?
The spheroid volume was “rapid loss in spheroid volume”.

And the “TUNEL staining (apoptosis)” value (LNCaP spheroids [2]; 48 h after the end of SAHA incubation (5 μM, 96 h))?
Its value is “apoptotic cells are found throughout the spheroid”.

What about the “TUNEL staining pattern compared with SAHA alone” value (LNCaP spheroids [2]; SAHA (5 μM, 96 h) and 6 Gy radiation) of the same compound?
The value was “almost identical pattern”.

And the “mode of cell death following exposure to SAHA” value (LNCaP spheroids [2]; TUNEL staining and spheroid morphology)?
The value was “predominantly by apoptosis”.

What about the “TUNEL staining (apoptosis)” value (LNCaP spheroids [2]; immediately after the end of a 96 h SAHA incubation (5 μM)) of the same compound?
The value was “majority of cells on the spheroid surface have undergone apoptosis”.

And the toxicity [3]?
Its toxicity is “minimal to no detectable toxicity”.

And the “spheroids forming colonies in the outgrowth assay” value (LNCaP spheroids [4])?
Its value is “none of the 12 spheroids forming colonies”.

What about the monolayer cell growth ([5]; 2.5 μM SAHA, over a 4-day period (Butler et al. 2000)) of the same compound?
Its monolayer cell growth is “complete growth suppression with minimal to no cell kill”.

What about the monolayer cell kill ([5]; 5 μM SAHA (Butler et al. 2000)) of the same compound?
Its monolayer cell kill is “progressive cell kill starting after 48 hours”.
